Laboratory results reported in PubChem BioAssay (NCI).
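Growth conditions: 96-well plates. Treatment: test compound, 48 hours, 5 concentrations. Analysis: linear interpolation between bracketing concentrations; unreached endpoints set to highest concentration. At the TGI there is no net growth.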

Experiments:
Test in all cases: DTP human tumour cell line panel, 48 h
BT-549 breast = tested on: BT-549 breast
MDA-N = tested on: MDA-N
MCF7 breast = tested on: MCF7 breast
SF-295 CNS = tested on: SF-295 CNS
HOP-62 NSCLC = tested on: HOP-62 NSCLC
MDA-MB-231 breast = tested on: MDA-MB-231 breast
SNB-75 CNS = tested on: SNB-75 CNS
MOLT-4 leukemia = tested on: MOLT-4 leukemia
NCI-H460 lung = tested on: NCI-H460 lung
CAKI-1 renal = tested on: CAKI-1 renal
MDA-MB-435 = tested on: MDA-MB-435
HS 578T breast = tested on: HS 578T breast
UACC-257 melanoma = tested on: UACC-257 melanoma
M14 melanoma = tested on: M14 melanoma
SN12C renal = tested on: SN12C renal
A498 renal = tested on: A498 renal
NCI-H226 lung = tested on: NCI-H226 lung
IGROV1 ovarian = tested on: IGROV1 ovarian
SK-OV-3 ovarian = tested on: SK-OV-3 ovarian
ACHN renal = tested on: ACHN renal
TK-10 renal = tested on: TK-10 renal
HT29 colon = tested on: HT29 colon
RPMI-8226 leukemia = tested on: RPMI-8226 leukemia
A549 NSCLC = tested on: A549 NSCLC
SR leukemia = tested on: SR leukemia
SK-MEL-5 melanoma = tested on: SK-MEL-5 melanoma
SNB-19 CNS = tested on: SNB-19 CNS
HOP-92 NSCLC = tested on: HOP-92 NSCLC
UO-31 renal = tested on: UO-31 renal
OVCAR-4 ovarian = tested on: OVCAR-4 ovarian
SF-539 CNS = tested on: SF-539 CNS
SW-620 colon = tested on: SW-620 colon
EKVX NSCLC = tested on: EKVX NSCLC
MALME-3M melanoma = tested on: MALME-3M melanoma
COLO 205 colon = tested on: COLO 205 colon
HCT-116 colon = tested on: HCT-116 colon
HCT-15 colon = tested on: HCT-15 colon
786-0 renal = tested on: 786-0 renal
OVCAR-8 ovarian = tested on: OVCAR-8 ovarian
RXF 393 renal = tested on: RXF 393 renal
OVCAR-3 ovarian = tested on: OVCAR-3 ovarian
SK-MEL-28 melanoma = tested on: SK-MEL-28 melanoma
U251 CNS = tested on: U251 CNS
NCI/ADR-RES ovarian = tested on: NCI/ADR-RES ovarian
K-562 leukemia = tested on: K-562 leukemia
HL-60(TB) leukemia = tested on: HL-60(TB) leukemia
SF-268 CNS = tested on: SF-268 CNS
DU-145 prostate = tested on: DU-145 prostate
KM12 colon = tested on: KM12 colon
UACC-62 melanoma = tested on: UACC-62 melanoma
NCI-H522 lung = tested on: NCI-H522 lung
HCC-2998 colon = tested on: HCC-2998 colon
T-47D breast = tested on: T-47D breast
CCRF-CEM leukemia = tested on: CCRF-CEM leukemia
SK-MEL-2 melanoma = tested on: SK-MEL-2 melanoma
OVCAR-5 ovarian = tested on: OVCAR-5 ovarian
NCI-H23 lung = tested on: NCI-H23 lung
PC-3 prostate = tested on: PC-3 prostate
LOX IMVI melanoma = tested on: LOX IMVI melanoma

Compound: O=C1OCC/C1=C/c1ccc(N=Nc2c(O)ccc3ccccc23)cc1
- TGI (BT-549 breast): 49.9 µM
- TGI (MDA-N): 33.5 µM
- TGI (MCF7 breast): > 100 µM
- TGI (SF-295 CNS): 47.8 µM
- TGI (HOP-62 NSCLC): 45.8 µM
- TGI (MDA-MB-231 breast): > 100 µM
- TGI (SNB-75 CNS): 49.2 µM
- TGI (MOLT-4 leukemia): 51.1 µM
- TGI (NCI-H460 lung): 47.3 µM
- TGI (CAKI-1 renal): 34.8 µM
- TGI (MDA-MB-435): 56.5 µM
- TGI (HS 578T breast): 54.3 µM
- TGI (UACC-257 melanoma): 40.3 µM
- TGI (M14 melanoma): 66.3 µM
- TGI (SN12C renal): 45.1 µM
- TGI (A498 renal): 34.2 µM
- TGI (NCI-H226 lung): 36 µM
- TGI (IGROV1 ovarian): 54.7 µM
- TGI (SK-OV-3 ovarian): 55.3 µM
- TGI (ACHN renal): 31.8 µM
- TGI (TK-10 renal): 35.3 µM
- TGI (HT29 colon): 35 µM
- TGI (RPMI-8226 leukemia): 53.8 µM
- TGI (A549 NSCLC): 44.7 µM
- TGI (SR leukemia): 37.5 µM
- TGI (SK-MEL-5 melanoma): 50.8 µM
- TGI (SNB-19 CNS): > 100 µM
- TGI (HOP-92 NSCLC): 47.3 µM
- TGI (UO-31 renal): 37.3 µM
- TGI (OVCAR-4 ovarian): 37.4 µM
- TGI (SF-539 CNS): 36.6 µM
- TGI (SW-620 colon): 40 µM
- TGI (EKVX NSCLC): 41.8 µM
- TGI (MALME-3M melanoma): 32.3 µM
- TGI (COLO 205 colon): 58 µM
- TGI (HCT-116 colon): 34.6 µM
- TGI (HCT-15 colon): 60.7 µM
- TGI (786-0 renal): 36.6 µM
- TGI (OVCAR-8 ovarian): 72 µM
- TGI (RXF 393 renal): 36.8 µM
- TGI (OVCAR-3 ovarian): 34.4 µM
- TGI (SK-MEL-28 melanoma): 38.4 µM
- TGI (U251 CNS): 39.2 µM
- TGI (NCI/ADR-RES ovarian): 41.7 µM
- TGI (K-562 leukemia): > 100 µM
- TGI (HL-60(TB) leukemia): 57.1 µM
- TGI (SF-268 CNS): 44.7 µM
- TGI (DU-145 prostate): 36.6 µM
- TGI (KM12 colon): 22.3 µM
- TGI (UACC-62 melanoma): 56.5 µM
- TGI (NCI-H522 lung): 41.8 µM
- TGI (HCC-2998 colon): 39.7 µM
- TGI (T-47D breast): > 100 µM
- TGI (CCRF-CEM leukemia): 53.5 µM
- TGI (SK-MEL-2 melanoma): 55.2 µM
- TGI (OVCAR-5 ovarian): 42.2 µM
- TGI (NCI-H23 lung): 44.8 µM
- TGI (PC-3 prostate): 49.6 µM

Compound: CCCCCC[C@H]1C(=O)O[C@H](C)[C@H](NC(=O)c2cccc(NC=O)c2OC)C(=O)O[C@@H](C)[C@@H]1OC(=O)CC(C)C (tested in a mixture with another compound)
- TGI (BT-549 breast): > 100 µM
- TGI (MDA-N): > 100 µM
- TGI (MCF7 breast): 78.3 µM
- TGI (SF-295 CNS): > 100 µM
- TGI (LOX IMVI melanoma): > 100 µM
- TGI (HOP-62 NSCLC): > 100 µM
- TGI (MDA-MB-231 breast): 91.7 µM
- TGI (MOLT-4 leukemia): > 100 µM
- TGI (NCI-H460 lung): > 100 µM
- TGI (CAKI-1 renal): 57.3 µM
- TGI (MDA-MB-435): > 100 µM
- TGI (HS 578T breast): > 100 µM
- TGI (UACC-257 melanoma): 55.7 µM
- TGI (M14 melanoma): > 100 µM
- TGI (SN12C renal): > 100 µM
- TGI (A498 renal): 47.2 µM
- TGI (NCI-H226 lung): > 100 µM
- TGI (SK-OV-3 ovarian): 39.2 µM
- TGI (ACHN renal): 49.2 µM
- TGI (TK-10 renal): 50.8 µM
- TGI (HT29 colon): > 100 µM
- TGI (RPMI-8226 leukemia): > 100 µM
- TGI (A549 NSCLC): 21.4 µM
- TGI (SR leukemia): 36 µM
- TGI (SK-MEL-5 melanoma): 38.7 µM
- TGI (HOP-92 NSCLC): 81.2 µM
- TGI (UO-31 renal): > 100 µM
- TGI (OVCAR-4 ovarian): 24.9 µM
- TGI (SF-539 CNS): 78.3 µM
- TGI (SW-620 colon): > 100 µM
- TGI (EKVX NSCLC): > 100 µM
- TGI (MALME-3M melanoma): > 100 µM
- TGI (COLO 205 colon): 34.7 µM
- TGI (HCT-116 colon): 50.3 µM
- TGI (HCT-15 colon): > 100 µM
- TGI (786-0 renal): > 100 µM
- TGI (OVCAR-8 ovarian): 30.4 µM
- TGI (RXF 393 renal): > 100 µM
- TGI (OVCAR-3 ovarian): 22.5 µM
- TGI (SK-MEL-28 melanoma): > 100 µM
- TGI (U251 CNS): 34.1 µM
- TGI (NCI/ADR-RES ovarian): 84.9 µM
- TGI (K-562 leukemia): > 100 µM
- TGI (HL-60(TB) leukemia): > 100 µM
- TGI (SF-268 CNS): > 100 µM
- TGI (DU-145 prostate): > 100 µM
- TGI (KM12 colon): > 100 µM
- TGI (UACC-62 melanoma): > 100 µM
- TGI (NCI-H522 lung): > 100 µM
- TGI (HCC-2998 colon): > 100 µM
- TGI (T-47D breast): > 100 µM
- TGI (CCRF-CEM leukemia): 85.3 µM
- TGI (SK-MEL-2 melanoma): > 100 µM
- TGI (OVCAR-5 ovarian): > 100 µM
- TGI (NCI-H23 lung): 48.3 µM
- TGI (PC-3 prostate): > 100 µM
